“And” between values parts separate entries of the source, which are not always exact repeats. Equal values may be shown once.
Experiments:
physchem = test: physchem
Excerpt: Predicted Peff values were obtained from a calibration plot of literature Peff values vs measured Caco-2 Papp using either buffer or plasma as the transport medium (see Results section).

[1] = Ionization constants by potentiometric titration; format: physicochemical; details: basic pKa (B), mean ± SD, n = 3 titrations
Method: The autotitrator was controlled by Tiamo software (Version 1.3). pH measurements were conducted using a Metrohm LL Micro glass electrode which was calibrated on the day of use with calibration standards at pH 2, 4, 7 and 10. All reagents were standardized (directly or indirectly) against potassium hydrogen phthalate (Sigma-Aldrich, A.C.S. Acidimetric Standard). Titrant solutions were protected from carbon dioxide absorption by flushing with nitrogen before sealing or by the incorporation of a drying tube filled with self-indicating soda lime into the titration reaction vessel set-up.
Aliquots were introduced directly into the titration vessel and diluted 1:10 with water (typical final compound concentration of 0.5 mM).

Caco-2 cell monolayers = test: Bidirectional permeability across Caco-2 cell monolayers; details: matrix: human plasma, corrected for fu
Method: Bidirectional permeability was assessed across Caco-2 cell monolayers as described previously. Briefly, permeability experiments were performed using either aqueous transport buffer (pH 7.4 Hanks balanced salt solution containing 20 mM HEPES) or human plasma (Australian Red Cross Blood Service) in both the apical and basolateral chambers. […] The final DMSO concentration in the donor solution was 0.1% v/v.
Samples from the donor chamber were taken at the start and end of the experiment. […] Donor and acceptor samples were stored frozen at − 80 °C until analysis by LC–MS (Additional file 1: Table S2) with sample preparation as described previously. The mass balance and apparent permeability coefficient (Papp) were calculated as previously described.
Where human plasma was used as the transport medium, Papp values were calculated as shown above, with correction for the fraction unbound (fu) in the donor solution Cdonorinitial×fu with fu determined at a similar concentration to that used in the transport experiment. The apparent flux of lucifer yellow was based on an endpoint measurement assuming no lag time. The efflux ratio was calculated as the ratio of the mean B–A to A–B Papp values.

[2] = Solubility in biorelevant media; details: 37 °C
Method: Solubility of each active pharmaceutical ingredient was evaluated at 37 °C in pH 7.4 phosphate buffered saline (prepared as described for the partitioning experiments), fasted (FaSSIF-V2) and fed (FeSSIF-V2) state simulated intestinal fluids and fasted state simulated gastric fluid (FaSSGF) as described by Jantratid et al.. […] Samples were vortexed and placed in a 37 °C incubator on an orbital mixer (IKA® VXR basic Vibrax® orbital mixer) set at 600 rpm. Sampling times were 1 h for FaSSGF or 5–6 h for FaSSIF-V2, FeSSIF-V2, and PBS. These times were used to reflect the maximal likely residence times within the stomach and small intestine, respectively. Sampling was carried out by centrifuging each sample at 10,000 rpm for 3 min, transferring 300 µL aliquots into fresh Eppendorf tubes and centrifuging these tubes again at 10,000 rpm for 3 min. Triplicate aliquots of the supernatant were then removed and diluted 1:2 in 50% aqueous methanol and then again in 50% aqueous acetonitrile to be within the analytical concentration range. Samples were analysed by LC–MS along with calibration standards (Additional file 1: Table S2).

[3] = Octanol/pH 7.4 buffer partition coefficient, shake flask; details: octanol/pH 7.4 buffer, shake flask, 37 °C
Method: Partition coefficients between octanol and pH 7.4 buffer were measured using a shake flask method. A stock solution of test compound in octanol was prepared at a concentration between 3 and 30 mg/mL based on the expected partition coefficient value. This stock solution was then diluted 3- and 10-fold with octanol and used to prepare the octanol phase for the partitioning experiments. Two different dilutions were used to confirm that there were no saturation effects. Phosphate buffered saline was prepared by combining 67 mM disodium hydrogen orthophosphate and sodium dihydrogen orthophosphate (both prepared in 43 mM NaCl) to a final pH of 7.4.
Partitioning experiments were conducted by mixing equal volumes of the octanol (containing test compound) and aqueous phases and placing on a vibrating plate mixer in an incubator at 37 °C. […] An aliquot of the aqueous phase was carefully removed and centrifuged again to ensure no contamination from the octanol phase before sampling in duplicate and diluting with aqueous methanol for analysis. Diluted samples were analysed by LC–MS along with calibration standards (Additional file 1: Table S2) and partition coefficients were calculated from the ratio of the mean octanol to buffer concentration after accounting for the dilution factors. The partitioning results for the two time points were used to confirm that the partitioning experiment had reached equilibrium.

## CC1(C)CC(O)(COc2ccc(C3CCC4(CC3)OOC3(O4)C4CC5CC(C4)CC3C5)cc2)CC(C)(C)N1 (stereo not drawn) [MMV052]
physchem
  SLAD: 7580 mg
physchem; Peff × tres/R, minimum 1
  An (absorption number): 13
physchem; based on measured FaSSIF solubility
  Ssi (estimated solubility in the small intestine): 1140 µg/mL
physchem; from Caco-2 Papp via calibration plot
  Predicted human Peff: 11 10^−4 cm/s
[1]
  Measured pKa: 8.3 ± 0.06 (B)
Caco-2 cell monolayers
  A–B Papp: > 300 10^−6 cm/s
  B–A Papp: > 300 10^−6 cm/s
[2]
  Solubility FaSSGF (1 h): 13.0 µg/mL and 24.7 µM
  Solubility FaSSIF-V2 (5–6 h): 1140 µg/mL and 2170 µM
  Solubility FeSSIF-V2 (5–6 h): > 2000 µg/mL and > 3800 µM
  Solubility PBS7.4 (5–6 h): 49.6 µg/mL and 94.3 µM
[3]
  Measured Log D7.4: 5.40

— paper PMC6941357, “An in vitro toolbox to accelerate anti-malarial drug discovery and development” (Malaria Journal, 2020)
